# Reference: patent publication US5464826A, “Method of treating tumors in mammals with 2',2'-difluoronucleosides” (Eli Lilly and Company, priority 1994, dated 1995)
# Read-outs that look alike come from different tables or passages of the source.
# How the values were obtained:
# [1] = system: human leukemic cells (CCRF-CEM cell line); assay: Cytotoxicity Screen (growth inhibition); format: cell-based; details: for IC50: Homo sapiens, read-out: IC50 (concentration giving 50% growth inhibition)
# From the text: The compounds represented by formula I employed in the present invention are cytostatic in that they inhibit the growth of human leukemic cells (CCRF-CEM cell line). […] T1 TABLE 1-Cytotoxicity Screen? -Compound Name?
# [2] = system: L1210V lymphocytic leukemia; assay: L1210V Lymphocytic Leukemia Tumor System; format: in vivo, mice; details: Experiment 1, IP; for Indefinite Survivors: 45 day survivors; for Toxic Deaths: deaths/mice in group
# Experimental: The study testing the efficacy of these compounds against L1210V leukemia was initiated by an IP inoculation of 1×10^6 cells. Treatment was begun 24 hours after inoculation. The response to therapy was determined by comparing the mean life span of the ten treated animals to that of the ten control animals; prolongation of life in the treated animals beyond that of controls is expressed as a percentage. In the Table, column 1 gives the example number of the compound tested; column 2, the experiment number; column 3, the dose level of the compound in mg/kg; column 4, the route of administration; column 5, the dosage schedule, that is, the days on which the compound was administered to the mice; column 6, the average increase in life span of the treated mice as compared to the control mice; column 7, the toxic deaths over the number of mice in each group; and column 8, the indefinite survivors, that is, the number of 45 day survivors in each group.
# [3] = system: X5563 plasma cell myeloma; assay: X5563 plasma cell myeloma tumor model; format: in vivo, mice (C3H); details: 30.0 mg/kg; IP; Daily for 9 days
# From the text: X5563 Myeloma--the tumor is maintained in C3H mice.
# (§1) The tumor was removed from passage animals and minced into 1 to 3 mm square fragments using sterile techniques. Tumor pieces were checked for sterility using both Antibiotic Medium 1 and Brain Heart Infusion (Difco; Detroit, Mich.). Recipient mice were shaved and tumor pieces were implanted subcutaneously in the axillary region by trocar. Drug therapy on the appropriate schedule was initiated on the day after tumor implant. The compound was dissolved in saline for all experiments. All animals were weighed at the beginning and end of drug treatment. Food and water were provided ad libitum. On days 10 to 12, two dimensional measurements (width and length) of all tumors were taken using vernier calipers. Tumor weights were calculated from these measurements using the following formula:
# Tumor Weight (mg)=Tumor Length (mm)×Tumor Width (mm)^2 /2
# For all data, the tumor weight was rounded to the nearest tenth of a gram for analysis. No group is included in the analysis for therapeutic activity in which deaths attributable to drug toxicity exceeded 30 percent of the treated group.
# In Table 3 which follows, column 1 gives the example number of the compound tested; column 2 provides the tumor system; column 3, the dose level; column 4, the route administered; column 5, the dosage schedule; column 6, the percent inhibition of the tumor; and column 7, the toxic deaths observed prior to completion of the study.
# [4] = system: 6C3HED, CA755, P1534J, X5563; assay: additional tumor test systems (summary statement); format: in vivo, mice; details: systems include 6C3HED
# From the text: These systems include the 6C3HED lymphosarcoma, also known as the Gardner lymphosarcoma (6C3HED); the CA-755 adenocarcinoma (CA755); the P1534J lymphatic leukemia (P1534J); and the X5563 plasma cell myeloma (X5563). Each of these systems is described in detail below.
# as §1, with “formula: […]” for “formula:”
compound,measurement,setting,value
"1-(2,6-diamino-9H-purin-9-yl)-2-desoxy-2,2-difluororibose",IC50 (concentration giving 50% growth inhibition),[1],0.075 mg/L
"1-(6-Amino-9H-purin-9-yl)-2-desoxy-2,2-difluororibose [Example 6]",Percent Increase Life Span,"[2]; 100.0 mg/kg, Daily for 9 days",16%
same,Indefinite Survivors,"[2]; 100.0 mg/kg, Daily for 9 days",0
same,Toxic Deaths,"[2]; 100.0 mg/kg, Daily for 9 days",0/7
same,Percent Increase Life Span,"[2]; 200.0 mg/kg, Daily for 9 days",18%
same,Indefinite Survivors,"[2]; 200.0 mg/kg, Daily for 9 days",0
same,Toxic Deaths,"[2]; 200.0 mg/kg, Daily for 9 days",0/7
"O=c1[nH]c(=O)c2ncn(C3O[C@H](CO)[C@@H](O)C3(F)F)c2[nH]1 (stereo partly shown) [1-(2,6-dioxo-1H,3H,9H-purin-9-yl)-2-desoxy-2,2-difluororibose]",IC50,[1],0.3 mg/L
"Nc1nc2c(ncn2C2O[C@H](CO)[C@@H](O)C2(F)F)c(=O)[nH]1 (stereo partly shown) [1-(2-amino-6-oxo-1H,9H-purin-9-yl)-2-desoxy-2,2-difluororibose]",IC50,[1],0.1 mg/L
"O=c1ccn(C2O[C@H](CO)[C@@H](O)C2(F)F)c(=O)[nH]1 (stereo partly shown) [Example 3, 1-(2,4-Dioxo-1H, 3H-pyrimidin-1-yl)-2-desoxy-2,2-difluororibose]",IC50,[1],5.4 mg/L
"Cc1cn(C2O[C@H](CO)[C@@H](O)C2(F)F)c(=O)nc1N (stereo partly shown) [Example 4, 1-(4-Amino-5-methyl-2-oxo-1H-pyrimidin-1-yl)-2-desoxy-2,2-difluororibose]",IC50,[1],0.3 mg/L
"Nc1ccn(C2O[C@H](CO)[C@H](O)C2(F)F)c(=O)n1 (stereo partly shown) [Example 5, 1-(4-Amino-2-oxo-1H-pyrimidin-1-yl)-2-desoxy-2,2-difluoroxylose]",IC50,[1]; CCRF-CEM,0.3 mg/L
same,Percent Inhibition of Tumor,[3],28%
same,Toxic Deaths,[3],0/10
same,Percent Increase Life Span,"[2]; 30.0 mg/kg, Daily for 10 days",57%
same,Indefinite Survivors,"[2]; 30.0 mg/kg, Daily for 10 days",0
same,Toxic Deaths,"[2]; 30.0 mg/kg, Daily for 10 days",0/10
same,activity in additional tumor test systems (in words),[4],demonstrated activity in additional tumor test systems
"Nc1nc(Cl)nc2c1ncn2[C@H]1O[C@H](CO)[C@@H](O)C1(F)F [α-1-(2-chloro-6-amino-9H-purin-9-yl)-2-desoxy-2,2-difluororibose]",IC50,[1],> 20 mg/L
"Nc1ncnc2c1ncn2[C@H]1O[C@H](CO)[C@@H](O)C1(F)F [α-1-(6-amino-9H-purin-9-yl)-2-desoxy-2,2-difluororibose]",IC50,[1],6.9 mg/L
"Nc1nc(Cl)nc2c1ncn2[C@@H]1O[C@H](CO)[C@@H](O)C1(F)F [β-1-(2-chloro-6-amino-9H-purin-9-yl)-2-desoxy-2,2-difluororibose]",IC50,[1],0.4 mg/L
"Nc1ncnc2c1ncn2[C@@H]1O[C@H](CO)[C@@H](O)C1(F)F [β-1-(6-amino-9H-purin-9-yl)-2-desoxy-2,2-difluororibose]",IC50,[1],0.5 mg/L
